“And” between values parts separate entries of the source, which are not always exact repeats. Equal values may be shown once.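 Values below derive from 48-hour exposures of cells grown in 96-well plates, with endpoints linearly interpolated between the two concentrations bracketing the appropriate inhibition level. Abbreviation: GI50, concentration required for 50% inhibition of growth. TGI: concentration producing complete growth inhibition.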
How the values were obtained:
Assay in all cases: inhibition of tumour cell growth, NCI panel, 48 h
COLO 205 colon = test system: COLO 205 colon
EKVX NSCLC = test system: EKVX NSCLC
HCC-2998 colon = test system: HCC-2998 colon
HOP-62 NSCLC = test system: HOP-62 NSCLC
HOP-92 NSCLC = test system: HOP-92 NSCLC
MOLT-4 leukemia = test system: MOLT-4 leukemia
NCI-H522 lung = test system: NCI-H522 lung
RXF 393 renal = test system: RXF 393 renal
SF-268 CNS = test system: SF-268 CNS
SK-MEL-2 melanoma = test system: SK-MEL-2 melanoma

| SMILES | GI50 (COLO 205 colon) | TGI (COLO 205 colon) | GI50 (EKVX NSCLC) | TGI (EKVX NSCLC) | GI50 (HCC-2998 colon) | TGI (HCC-2998 colon) | GI50 (HOP-62 NSCLC) | TGI (HOP-62 NSCLC) | GI50 (HOP-92 NSCLC) | TGI (HOP-92 NSCLC) | GI50 (MOLT-4 leukemia) | TGI (MOLT-4 leukemia) | GI50 (NCI-H522 lung) | TGI (NCI-H522 lung) | GI50 (RXF 393 renal) | TGI (RXF 393 renal) | GI50 (SF-268 CNS) | TGI (SF-268 CNS) | GI50 (SK-MEL-2 melanoma) | TGI (SK-MEL-2 melanoma) |
| --- | --- | --- | --- | --- | --- | --- | --- | --- | --- | --- | --- | --- | --- | --- | --- | --- | --- | --- | --- | --- |
| CC1C(C)N(C(=O)CCl)c2ccccc2N1C(=O)CCl (stereo not given) | 0.399 µM | 0.973 µM | 0.941 µM | 2.42 µM | 1.69 µM | 3.23 µM | 1.62 µM | 3.52 µM | 0.709 µM | 1.84 µM | 0.243 µM | 0.81 µM | 0.162 µM | 0.347 µM | 0.266 µM | 0.961 µM | 0.582 µM | 2.11 µM | 1.66 µM | 4.54 µM |
| CC1=C2[C@@H](CC1)[C@]1(C)O[C@@](C(C)C)(C[C@H]1OC(=O)CO)[C@H]2OC(=O)C1CC1c1ccccc1 (stereo not given in full) | 16.1 µM | 33 µM | 8.21 µM | 22.7 µM | 13.5 µM | 29.4 µM | 15.2 µM | 29.7 µM | 11.8 µM | 24.6 µM | 9.73 µM | 28.8 µM | 12.7 µM | 28 µM | 0.405 µM | 17.4 µM | 13 µM | 27.9 µM | 15.5 µM | 32.3 µM |
| c1ccc(C2OC3(CCC[C@H]4C[C@H]43)O[C@H]2c2ccccc2)cc1 (stereo not given in full) |  | 91.7 µM |  | > 100 µM |  | > 100 µM |  | > 100 µM |  | 66.2 µM |  | 63.9 µM |  | 67.1 µM |  | 79 µM |  | > 100 µM |  | 39.6 µM |
| COC(=O)c1ccc(CN2C(=O)C(Cl)=C(Nc3cccc(Cl)c3C)C2=O)cc1 | 19.7 µM | > 100 µM | 46.8 µM | > 100 µM | 32.5 µM | 67.5 µM | 14.2 µM | > 100 µM | 17 µM | > 100 µM | 5.14 µM | > 100 µM | 3.51 µM | 20.8 µM | 33.7 µM | > 100 µM | 45.3 µM | > 100 µM | 3.48 µM | 21.9 µM |
| CNC(=O)c1cc(Oc2ccc(NC(=O)Nc3ccc(Cl)c(C(F)(F)F)c3)c(F)c2)ccn1 | 2.28 µM and 1.36 µM | 8.52 µM and 5.74 µM | 2.96 µM and 2.68 µM | > 44 µM | 2.44 µM and 1.9 µM | 10.4 µM and 8.17 µM | 2.83 µM and 2.33 µM | 14.5 µM and > 10 µM | 0.822 µM and 0.74 µM | 5.55 µM and 5.15 µM | 2.21 µM and 1.91 µM | 5.75 µM and 6.59 µM | 1.73 µM and 1.7 µM | 5.84 µM and 6.43 µM | 3.83 µM and 2.91 µM | 17 µM and > 10 µM | 2.93 µM and 3.02 µM | 14 µM and > 10 µM | 0.664 µM and 0.336 µM | 2.13 µM and 1.86 µM |
| ClC/C=C/COC1CCCCO1 (stereo not given) |  | > 100 µM |  | > 100 µM |  | > 100 µM |  | > 100 µM |  | > 100 µM |  | 97 µM |  | 8.85 µM |  | > 100 µM |  | > 100 µM |  | > 100 µM |
| CCOC(=O)Oc1cc2c(c(OC)c1OC)-c1ccc(OC)c(=O)cc1C(NC(C)=O)CC2 (stereo not given) |  | 0.135 µM |  | > 100 µM |  | 0.683 µM |  | > 93.1 µM |  | 28.7 µM |  | 22.9 µM |  | 0.0271 µM |  | 0.564 µM |  | 73.5 µM |  | > 17.1 µM |
| CN(C)c1ccc2oc(=O)c3ccccc3c2c1 |  | > 100 µM |  | > 100 µM |  | > 100 µM |  | 80.5 µM |  | > 100 µM |  | > 100 µM |  | > 100 µM |  | 78.9 µM |  | > 100 µM |  | 84.1 µM |
| COc1ncc(Nc2ncc([C@@H](C)N3CCN(S(C)(=O)=O)CC3)cc2-c2nc(C)nc(N)n2)cc1F | 0.122 µM | 15.3 µM | 0.486 µM | 12.6 µM | 0.211 µM | > 100 µM | 0.192 µM | 75.1 µM | < 0.01 µM | 1.19 µM | 0.0402 µM | 4.13 µM | 1.09 µM | 59.1 µM | 0.0158 µM | 0.453 µM | 0.452 µM | > 100 µM | 2.05 µM | > 69.6 µM |
| O=C(/C=C/c1ccccc1F)c1ccc(Cl)c(Cl)c1 |  | > 100 µM |  | > 100 µM |  | > 71 µM |  | > 100 µM |  | > 100 µM |  | 77 µM |  | 61.2 µM |  | 62.4 µM |  | > 100 µM |  | > 100 µM |
| COc1ccc(C/C(=C(\C)c2ccc(OCCN3CCCC3)cc2)c2ccc(OCCN3CCCC3)cc2)cc1 | 1.72 µM | 3.38 µM | 2.21 µM | 5.89 µM | 1.74 µM | 3.19 µM | 2.18 µM | 7.02 µM | 1.96 µM | 8.25 µM | 1.94 µM | 4.51 µM | 1.86 µM | 3.53 µM | 1.48 µM | 2.88 µM | 1.97 µM | 4.19 µM | 1.87 µM | 3.53 µM |
| COc1cc(/C=C/C(=O)/C=C/c2ccc(-n3ccnc3C)cc2)ccc1O | 3.4 µM | 12.1 µM | 21 µM | 99 µM | 1.75 µM | 3.21 µM | 3.18 µM | 10.5 µM | 10.1 µM | 45.6 µM | 4.05 µM | > 100 µM | 5.26 µM | 24.9 µM | 1.66 µM | 3.18 µM | 2.9 µM | 12.1 µM | 26 µM | 84.2 µM |
| CC1=C(C(=O)Nc2ccccc2)C(c2cccc3ccccc23)C(C(=O)Nc2ccccc2)=C(C)N1 |  | 26.6 µM |  | 37.6 µM |  | 38.6 µM |  | 35.4 µM |  | 58.8 µM |  | 43.8 µM |  | 35.6 µM |  | 29.2 µM |  | 43.1 µM |  | 34.7 µM |
